Measured values: patent US20250026741A1, “INHIBITORS OF THE ONCOGENIC SHP2 PHOSPHATASE AND USES THEREOF” (Sanford Burnham Prebys Medical Discovery Institute, priority 2021, published 2025)
Where two headings read alike, the source gives them in different places.

Experiments:
[1] = tested on: MLL-AF10 leukemia cells expressing E76K mutant SHP2; test: Cell viability assay, MLL-AF10 cells expressing E76K mutant SHP2; type: cell-based, mouse; settings: Mus musculus
Experimental: Cell viability assays of SHP099, #01, and #02 against mouse MLL-AF10 leukemia cells were conducted. Two MLL-AF10 cell lines were employed, one expressing wild-type SHP2, and the other expressing E76K mutant SHP2.

[2] = target: full-length SHP2-E76K oncogenic mutant (Homo sapiens (Human), UniProt Q06124, E76K); test: DiFMUP fluorescence intensity phosphatase inhibition assay, SHP2-E76K; type: biochemical
How it was run: (§1)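 DiFMUP at its Km per construct (60 μM WT, 20 μM E76K and SHP2cat), 0.5 nM enzyme, pH 6.0 Bis-Tris, RT; SHP2-WT preactivated with 500 nM bis-phospho IRS-1 peptide; 20 min inhibitor preincubation. Kinetic fluorescence (ex 360/em 460 nm); IC50 from background-corrected initial rates, 10-point curves.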

[3] = target: SHP2 catalytic domain (SHP2cat; residues 248-527) (Homo sapiens (Human), UniProt Q06124); test: DiFMUP fluorescence intensity phosphatase inhibition assay, SHP2cat; type: biochemical
Excerpt: To test the synthesized compounds for their potential to inhibit SHP2 activity, a fluorescence intensity-based assay using 6,8-difluoro-4-methylumbelliferyl phosphate (DiFMUP) as the substrate was adapted for three recombinant SHP2 constructs: 1) the SHP2 catalytic domain (SHP2cat; residues 248-527), 2) the full-length SHP2-E76K oncogenic mutant, and 3) the full-length SHP2 wild-type (SHP2-WT). The recombinant SHP2 proteins were expressed and purified. A dually phosphorylated peptide derived from the insulin receptor substrate 1 (IRS-1) served as a surrogate binding protein and was used to activate SHP2-WT. […] Michaelis-Menten experiments to determine the DiFMUP Michaelis-Menten constant (Kmn) for each SHP2 construct were performed and yielded the following values: SHP2-WT, Km=60 μM; SHP2-E76K, Km=20 μM; SHP2cat, Km=20 μM. Relative maximum rates (Vmax) of the DiFMUP reactions were as follows: SHP2-WT, Vmax=871 AFU/min; SHP2-E76K, Vmax, =2730 AFU/min; SHP2cat, Vmax=2912 AFU/min. IC50 values for each compound were determined from initial rates in 10-point dose-response assays using DiFMUP at a concentration corresponding to its Km value for the respective SHP2 construct.
(§2) SHP2 inhibitors were tested at room temperature (RT) in a 384-well plate format standard phosphatase fluorescence intensity assay using DiFMUP (Invitrogen/Thermo Fisher Scientific, Carlsbad, CA) as a substrate and a total reaction volume of 25 μL. SHP2 inhibitors or vehicle (DMSO) were spotted in triplicate into a black Greiner FLUOTRAC™ 200 384-well microplate (#781076, Greiner) for a 10-point dose-response assay using an Echo®555 Liquid Handler (Labcyte, Inc., San Jose, CA). PTP working solutions were prepared at a 0.625 nM concentration (for a final concentration of 0.5 nM) in buffer containing 50 mM Bis-Tris pH 6.0, 50 mM NaCl, 5 mM DTT, and 0.01% Tween® 20. Prior to the assay, a dually phosphorylated insulin receptor substrate 1 (IRS-1) peptide [625 nM (500 nMfinal) (30)] was added to full-length WT SHP2 working solutions and incubated for 20 min. DiFMUP working solutions at 5× final concentration were prepared in 50 mM Bis-Tris pH 6.0, 50 mMNaCl, and 0.01% Tween 20. 20 μL of PTP working solution was dispensed into the microplate and incubated with inhibitor for 20 min at RT. […] The reaction was initiated by addition of 5 μL DiFMUP working solutions. Fluorescence intensity was measured in kinetic mode (every minute for 7 or 10 min) using a Tecan Spark® Multimode Microplate Reader (Tecan, Groedig, Austria) with an excitation wavelength of 360 nm and an emission wavelength of 460 nm. The initial rates were determined from the linear progression curves of the PTP reaction. The nonenzymatic hydrolysis of the substrate was corrected by using a control without addition of enzyme. IC50 values were calculated from the corrected initial rates by nonlinear regression using the program GraphPad Prism (GraphPad Software, Inc., San Diego, CA) Version 8. Dose-response inhibition assays of SHP2cat using the substrate OMFP were performed similarly as described above for DiFMUP. OMFP was used at a concentration corresponding to its Km value for SHP2cat (50 μM final). Fluorescence intensity was measured in kinetic mode (every minute for 10 min) using a Tecan Spark Multimode Microplate Reader with an excitation wavelength of 485 nm and an emission wavelength of 535 nm. Initial rates were determined and IC50 vales calculated as described above.

[4] = target: striatal-enriched tyrosine phosphatase (STEP) catalytic domain (Homo sapiens (Human), UniProt P54829); test: DiFMUP phosphatase inhibition assay, STEP; type: biochemical; settings: for IC50: catalytic domain, DiFMUP at Km (4 μM); for fold selectivity for SHP2 over STEP: from IC50 values against catalytic domains
Experimental: Selectivity is one of the biggest challenges in PTP inhibitor development. […] Similar to SHP2, we adapted a 384-well plate format DiFMUP assay for recombinant PTP1B and STEP and performed Michaelis-Menten experiments to determine DiFMUP Km values for each phosphatase. IC50 values of our inhibitors for PTP1B and STEP were determined in 10-point dose-response assays with DiFMUP used at the concentration corresponding to the respective Km value. […] Other inhibitors with good relative selectivity for SHP2 included #02 (13-fold selective over PTP1B; 73-fold selective over STEP) and #05 (5-fold selective over PTP1B; >71-fold selective over STEP).
as §2

[5] = target: full-length SHP2 wild-type (SHP2-WT) (Homo sapiens (Human), UniProt Q06124); test: DiFMUP fluorescence intensity phosphatase inhibition assay, SHP2-WT activated with IRS-1 peptide; type: biochemical; settings: DiFMUP at Km (60 μM), IRS-1 peptide activated
How it was run: as §1

SHP2cat = SHP2cat (Homo sapiens (Human), UniProt Q06124); test: OMFP fluorescence intensity inhibition assay, SHP2cat; type: biochemical; settings: OMFP at Km (50 μM); read-out: IC50 against SHP2cat with OMFP
Excerpt: We confirmed specific and dose-dependent binding of inhibitors to SHP2 by protein thermal shift, which monitors the thermal stability of a target protein in vitro. […] In addition, we confirmed the inhibitory activity of several furanylbenzamide inhibitors, including the top two compounds #02 and #01, in SHP2cat inhibition assays using the alternative substrate 3-O-methylfluorescein phosphate (OMFP), which features a peak fluorescence emission that is red-shifted by […] compared to DiFMUP. The Km value of OMFP for SHP2cat was determined to be 50 μM. An OMFP fluorescence intensity-based assay was used to perform inhibitor dose-response experiments and determine IC50 values.
SHP2 inhibitors were tested at room temperature (RT) in a 384-well plate format standard phosphatase fluorescence intensity assay using DiFMUP (Invitrogen/Thermo Fisher Scientific, Carlsbad, CA) as a substrate and a total reaction volume of 25 μL. […] Fluorescence intensity was measured in kinetic mode (every minute for 7 or 10 min) using a Tecan Spark® Multimode Microplate Reader (Tecan, Groedig, Austria) with an excitation wavelength of 360 nm and an emission wavelength of 460 nm. The initial rates were determined from the linear progression curves of the PTP reaction. […] Initial rates were determined and IC50 vales calculated as described above.

[6] = DiFMUP at Km (20 μM), 10-point dose-response, read-out: SHP2-E76K IC50
[7] = DiFMUP at Km (20 μM), read-out: SHP2cat IC50
[8] = catalytic domain, DiFMUP at Km, read-out: SHP2 IC50

Chain of full-length SHP2-E76K oncogenic mutant (Q06124 whole entry E76K): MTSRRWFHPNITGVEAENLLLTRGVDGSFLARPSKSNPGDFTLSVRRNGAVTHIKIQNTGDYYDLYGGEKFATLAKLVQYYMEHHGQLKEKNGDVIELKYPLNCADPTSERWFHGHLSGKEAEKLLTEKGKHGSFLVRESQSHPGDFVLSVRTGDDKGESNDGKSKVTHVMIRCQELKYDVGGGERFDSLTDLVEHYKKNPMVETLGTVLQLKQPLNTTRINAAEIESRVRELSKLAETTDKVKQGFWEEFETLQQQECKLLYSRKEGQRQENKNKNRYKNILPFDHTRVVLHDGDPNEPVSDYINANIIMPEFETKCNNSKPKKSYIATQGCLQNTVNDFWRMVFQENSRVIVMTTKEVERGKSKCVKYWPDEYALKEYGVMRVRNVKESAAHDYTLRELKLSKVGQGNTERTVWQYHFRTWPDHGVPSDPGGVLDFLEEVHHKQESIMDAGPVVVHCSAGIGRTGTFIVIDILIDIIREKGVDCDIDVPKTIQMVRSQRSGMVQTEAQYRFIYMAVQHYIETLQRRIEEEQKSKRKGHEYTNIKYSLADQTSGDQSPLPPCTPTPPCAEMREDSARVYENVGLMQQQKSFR
Chain of striatal-enriched tyrosine phosphatase (STEP) catalytic domain (P54829 280-565 limits assumed): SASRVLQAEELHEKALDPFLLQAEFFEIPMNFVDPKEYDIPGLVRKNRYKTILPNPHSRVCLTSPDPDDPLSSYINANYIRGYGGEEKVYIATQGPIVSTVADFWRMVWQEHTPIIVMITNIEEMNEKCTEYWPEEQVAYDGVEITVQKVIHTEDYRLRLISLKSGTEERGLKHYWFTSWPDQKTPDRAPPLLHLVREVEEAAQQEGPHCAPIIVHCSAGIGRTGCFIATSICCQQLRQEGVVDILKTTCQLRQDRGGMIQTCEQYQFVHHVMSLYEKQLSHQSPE
Chain of SHP2 catalytic domain (SHP2cat; residues 248-527) (Q06124 248-527): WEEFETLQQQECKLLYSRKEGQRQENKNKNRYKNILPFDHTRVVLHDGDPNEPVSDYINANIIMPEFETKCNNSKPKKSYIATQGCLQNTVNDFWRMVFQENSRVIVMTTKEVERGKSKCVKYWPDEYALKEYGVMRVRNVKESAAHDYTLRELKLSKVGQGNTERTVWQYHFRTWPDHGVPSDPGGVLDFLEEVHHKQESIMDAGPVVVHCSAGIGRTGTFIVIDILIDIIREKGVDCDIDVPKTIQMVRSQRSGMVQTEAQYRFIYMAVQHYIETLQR
Chain of SHP2cat (Q06124 248-527): as above

IC50 [1] [nM]	IC50 [2, 6] [nM]	IC50 ([2]; IC50 against SHP2-E76K, in vitro phosphatase inhibition assay, screening hit, heading: IC50 against SHP2-E76K) [nM]	IC50 [3, 7] [nM]	IC50 [3, 8] [nM]	IC50 [4] [nM]	fold selectivity for SHP2 over STEP [4] [fold]	IC50 [5] [nM]	IC50 (SHP2cat) [nM]	SMILES
3000	1000 to 20000	1800	≤ 1000	730	53000	73	1000 to 20000	440	O=C(Nc1ccccc1)c1cc(-c2ccc(/C=C3\Sc4ccccc4C3=O)o2)ccc1O [#02, (Z)-2-hydroxy-5-(5-((3-oxobenzo[b]thiophen-2(3H)-ylidene)methyl)furan-2-yl)-N-phenylbenzamide]
–	1000 to 20000	–	1000 to 20000	1400	> 100000	–	1000 to 20000	–	N#Cc1cc(-c2ccc(/C=C3\Sc4ccccc4C3=O)o2)ccc1O [#05, (Z)-2-Hydroxy-5-(5-((3-oxobenzo[b]thiophen-2(3H)-ylidene)methyl)furan-2-yl)benzonitrile]
2000	≤ 1000	–	≤ 1000	220	44000	200	1000 to 20000	1200	Nc1ccc(NC(=O)c2cc(-c3ccc(/C=C4\Sc5ccccc5C4=O)o3)ccc2O)cc1 [#01, (Z)—N-(4-Aminophenyl)-2-hydroxy-5-(5-((3-oxobenzo[b]thiophen-2(3H)-ylidene)methyl)furan-2-yl)benzamide]
